What was measured:
[1] = molecular target: T1, pantothenate kinase (ecPanK) (Escherichia coli, UniProt P0A6I3); assay: fluorescence polarization competition against TMR-TAZ; assay type: binding
T1 construct: gene coaA; ecPanK WT, N-terminal Strep-tag, C-terminal Hisx10
T1 sequence (P0A6I3 1-316): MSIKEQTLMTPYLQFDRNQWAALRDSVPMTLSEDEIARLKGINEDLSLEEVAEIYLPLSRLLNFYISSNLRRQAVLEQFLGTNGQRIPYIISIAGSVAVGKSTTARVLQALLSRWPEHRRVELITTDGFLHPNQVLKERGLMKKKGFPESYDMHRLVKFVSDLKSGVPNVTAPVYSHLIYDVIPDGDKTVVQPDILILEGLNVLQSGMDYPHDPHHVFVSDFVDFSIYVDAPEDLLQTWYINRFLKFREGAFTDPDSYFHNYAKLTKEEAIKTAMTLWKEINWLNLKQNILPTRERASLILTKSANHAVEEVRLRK

[2] = molecular target: T1, pantothenate kinase (ecPanK); assay: biochemical; design: fluorescence polarization competition against 50 nM TMR-TAZ with 20 uM ecPanK, half-maximal c50
Experimental: The binding affinity (c50) of different ecPanKs for CoA and AcCoA were determined by a fluorescence polarization competition assay against TMR-TAZ. 50 nM TMR-TAZ and 20 μM ecPanKs, except ecPanK^D127A,F252Y,L277W (100 μM), were titrated against CoA or AcCoA concentrations ranging from 64 nM to 5 mM in PBS supplemented with 0.5 mg ml^−1 BSA and 50 mM HEPES. Assays were performed in non-binding black 96-well plates with a final volume of 50 μl with excitation at 520 nm (bandwidth 20 nm) and emission 600 nm (bandwidth 20 nm). Obtained FP values were averaged and fitted to equation (4) to estimate the c50 values using OriginPro 2021.4 FP=FP0+FPs−FP0/1+c50/[L] Where FP0 is the fluorescence polarization of the fluorophore with ecPanKs in the absence of CoA or AcCoA (bound fluorophore), FPs is the fluorescence polarization of the fluorophore in the presence of CoA or AcCoA (free fluorophore) c50 is the half-maximal effective concentration, and [L] is the concentration of CoA or AcCoA. […] Representative in-gel fluorescence scan after SDS-PAGE (n = 3 independent experiments) of Halo-SiR labeled sensor proteins, Lane 1: protein marker, lane 2: CoA-Snifit^V97T, lane 3: CoA-Snifit^G41, lane 4: CoA-Snifit^G41S, lane 5: CoA-Snifit^G41N. c. […] Fluorescence polarization responses (FP, mean ± s.d., n = 3 independent replicates) of 50 nM TMR-TAZ as a function of ecPanK^WT concentration in PBS. e. […]

[3] = molecular target: T1, pantothenate kinase (ecPanK); assay: fluorescence polarization, purified protein titrated against […] TMR-TAZ; assay type: binding
[4] = molecular target: T2, pantothenate kinase (ecPanK) (Escherichia coli, UniProt P0A6I3, D127A/F252Y/L277W); assay: fluorescence polarization; assay type: binding
T2 construct: gene coaA; ecPanK D127A,F252Y,L277W

Row | SMILES | fluorescence polarization competition against TMR-TAZ [1] | IC50 [2] | Kd [3] | Kd [4]
1 | CC(C)(COP(=O)(O)OP(=O)(O)OC[C@H]1O[C@@H](n2cnc3c(N)ncnc32)[C@H](O)[C@@H]1OP(=O)(O)O)[C@@H](O)C(=O)NCCC(=O)NCCS [Coenzyme A] | CoA competes with TMR-TAZ for binding to ecPanK (Extended Data Fig. 1e) | 214 ± 19.2 µM |  | 
2 | CC(=O)SCCNC(=O)CCNC(=O)[C@H](O)C(C)(C)COP(=O)(O)OP(=O)(O)OC[C@H]1O[C@@H](n2cnc3c(N)ncnc32)[C@H](O)[C@@H]1OP(=O)(O)O [acetyl-CoA] |  | 1420 ± 315 µM |  | 
3 | CC(NC(=O)c1ccccc1C(F)(F)F)c1nnc(SCc2ccc(F)cc2)n1Cc1ccc(COC(=O)NCCOCCOCCNC(=O)c2ccc(C(=O)O)c(-c3c4ccc(=[N+](C)C)cc-4oc4cc(N(C)C)ccc34)c2)nc1 (centres unmarked) [compound 1, TMR-TAZ] |  |  | 1.2 ± 0.2 µM | 21.6 ± 3.7 µM
